Data: PMC6129194 (Bioorganic & medicinal chemistry, 2018)

Assays:
[1] = cited from earlier work
[2] = cited from earlier work; remark: listed apart in the source
[3] = system: MDCK-mdr1 cells; assay: MDCK-mdr1 monolayer permeability assay; details: % transported apical to basal; 10 μM, 1 h, 37 °C, pH 7.4

MDCK-mdr1 A to B [3] [%] | Compound | human liver microsome stability [1] | solubility in acidic media [2]
 | CN1CCN(c2ncnc3c2nc(-c2ccccc2Cl)n3-c2ccc(Cl)cc2)CC1 [compound 5] | good | good
< 1 | CC(C)CS(=O)(=O)N1CCN(c2ncnc3c2nc(-c2ccccc2Cl)n3-c2ccc(Cl)cc2)CC1 [compound 15, 8-(2-Chlorophenyl)-9-(4-chlorophenyl)-6-{4-[(2-methylpropyl)sulfonyl]piperazin-1-yl}-9H-purine] |  | 
< 1 | N=C(Nc1ccc(F)cc1)N1CCN(c2ncnc3c2nc(-c2ccccc2Cl)n3-c2ccc(Cl)cc2)CC1 [compound 28, 4-[8-(2-Chlorophenyl)-9-(4-chlorophenyl)-9H-purin-6-yl]-N-(4-fluorophenyl)piperazine-1-carboximidamide] |  | 

Compound | MDCK-mdr1 A to B [3] [%] | human liver microsome stability [1] | solubility in acidic media [2]
O=C(OCC1CCC1)N1CCN(c2ncnc3c2nc(-c2ccccc2Cl)n3-c2ccc(Cl)cc2)CC1 [compound 26, Cyclobutylmethyl 4-[8-(2-Chlorophenyl)-9-(4-chlorophenyl)-9H-purin-6-yl]piperazine-1-carboxylate] | < 1 |  | 
